Two molecules from ChEMBL document CHEMBL5620427, “Recent advances in Fragment-based strategies against tuberculosis” (Eur J Med Chem, 2023) can be followed below.

The assay has as its system Mycobacterium tuberculosis variant bovis. The experiment in a line: Antibacterial activity against Mycobacterium bovis BCG ATCC 35734 assessed as bacterial growth inhibition measured after 3 weeks by resazurin dye based assay. Conditions: BCG ATCC 35734, 504 h. Type of assay: functional. (In general: Alamar Blue is a resazurin reagent that responds to reducing activity.)

One may read the MIC99 as the lowest concentration that inhibits either 99% of growth or 99% of the strains tested, depending on the study. With `NS(=O)(=O)c1cc(Cl)cc(Cl)c1`, the MIC99 was below 56 µM.

As to `CCOC(=O)c1cc(Cl)c(O)c(Cl)c1`, the MIC99 is below 53 µM.
